According to patent US20170159130A1, “TRANSCRIPTIONAL CLASSIFICATION AND PREDICTION OF DRUG RESPONSE (T-CAP DR)” (priority 2015, published 2017):
Where two headings read alike, the source gives them in different places.

Test system: human myeloma cell lines (HMCLs)
Assay: In vitro chemosensitivity (cytotoxicity) assay, CellTiter-Glo luminescent cell viability, panel of 50 HMCLs
Assay type: cell-based
Details: for IC50: single agent, viability 48 hours post treatment; for AUSC (area under the survival curve), Maximum / AUSC (area under the survival curve), Mean / AUSC (area under the survival curve), Median / AUSC (area under the survival curve), Minimum: trapezoidal rule, 48 hours post treatment
Experimental: Fifty (50) HMCLs were procured from various institutions, established and characterized, and maintained in Human Myeloma Cell Line (HMCL) media with IL-6 (Mitra et al., 2016). Table 1A provides the cytogenetic characteristics of the […] cytotoxicity assays were performed on the HMCLs to create a drug sensitivity profile in response to treatment with increasing concentrations of Bz, Cz, Ix and Opz as single agents and half-maximal inhibitory concentration/IC50 values and area under the survival curve/AUSC were calculated as described in Mitra et al. (2016). Briefly, cells were counted using Countess automated cell counter (Invitrogen) and seeded in 96-well plates at a concentration of 4×10^5 cells per mL. After 24 hours, cells were treated with increasing concentrations of Bz, Cz, Ix and Opz as single agents. […] Percent survival values were normalized to untreated controls and half-maximal inhibitory concentration/IC50 values were determined by calculating the nonlinear regression using sigmoidal dose-response equation (variable slope). Area under the survival curve/AUSC was calculated using trapezoidal rule and log2-transformed for further statistical analysis (Mitra et al., 2016). Caspase3/7 activity were evaluated using Caspase-Glo®3/7 Assay kit (Promega) on Synergy 2 Microplate Reader.

[1] = maximum across panel of 50 HMCLs
[2] = median across panel of 50 HMCLs
[3] = minimum across panel of 50 HMCLs
[4] = Homo sapiens, maximum across panel of 50 HMCLs, read-out: IC50, Maximum
[5] = Homo sapiens, mean across panel of 50 HMCLs, read-out: IC50, Mean
[6] = Homo sapiens, median across panel of 50 HMCLs, read-out: IC50, Median
[7] = Homo sapiens, minimum across panel of 50 HMCLs, read-out: IC50, Minimum

Row | SMILES | IC50 (maximum across panel of 50 HMCLs, read-out: IC50, Maximum) [nM] | AUSC (area under the survival curve), Maximum [1] [µM] | IC50 (mean across panel of 50 HMCLs, read-out: IC50, Mean) [nM] | AUSC (area under the survival curve), Mean (mean across panel of 50 HMCLs) [µM] | IC50 (median across panel of 50 HMCLs, read-out: IC50, Median) [nM] | AUSC (area under the survival curve), Median [2] [nM] | IC50 (minimum across panel of 50 HMCLs, read-out: IC50, Minimum) [nM] | AUSC (area under the survival curve), Minimum [3] [nM] | IC50 [4] [nM] | IC50 [5] [nM] | IC50 [6] [nM] | IC50 [7] [nM]
1 | CC(C)C[C@H](NC(=O)CNC(=O)c1cc(Cl)ccc1Cl)B(O)O [Ixazomib] | 4760 | 46.494 | 155 | 10.03 | 42.1 | 6456.0 | 15.1 | 1702.0 | – | – | – | –
2 | CC(C)C[C@H](NC(=O)[C@H](Cc1ccccc1)NC(=O)c1cnccn1)B(O)O [Bortezomib] | – | 38.974 | – | 2.7001 | – | 1524.0 | – | 319.6 | 124 | 17.1 | 11.7 | 2.8
3 | COC[C@H](NC(=O)c1cnc(C)s1)C(=O)N[C@@H](COC)C(=O)N[C@@H](Cc1ccccc1)C(=O)[C@@]1(C)CO1 [Oprozomib] | – | 59.917 | – | 5.017 | – | 2885.0 | – | 1050.0 | 776 | 45.8 | 23.7 | 7.6
4 | CC(C)C[C@H](NC(=O)[C@H](CCc1ccccc1)NC(=O)CN1CCOCC1)C(=O)N[C@@H](Cc1ccccc1)C(=O)N[C@@H](CC(C)C)C(=O)[C@@]1(C)CO1 [Carfilzomib] | – | 19.097 | – | 3.5034 | – | 1448.5 | – | 375.5 | 55.3 | 10.9 | 7.1 | 0.7
